Test results reported in PMC3115942 (PLoS ONE, 2011).
Where two headings read alike, the source gives them in different places.

What was measured:
[1] = system: PANC-1, SUIT-2, PC-3 and FEMX cells; experiment: In vitro antiproliferative assay (MTS), tumor cell lines; assay type: cell-based, human; settings: 10 µM, 4 day exposure; across PANC-1, SUIT-2, PC-3 and FEMX
Method: (§1) Cells were plated at a density of 3000 (THLE-2 and PC-3) and 1000 (PANC-1, SUIT-2 and FEMX) cells per well (on the basis of their growth rate) in 200 µl of medium in a 96-well plate. Medium was changed daily, and after four days, the assay was read using a MTS kit (Promega) according to the instructions of the manufacturer. Graphs display average of percent growth with standard deviation (n = 8).

[2] = Pharmacokinetics in mouse plasma; assay type: in vivo; settings: 5 mg/kg; for Cmax / AUC(0-inf) / AUC(0-t) / half-life / k el: mouse plasma; for concentration at 5 min / concentration at 15 min / concentration at 30 min / concentration at 60 min / concentration at 120 min / concentration at 240 min: read-out: blood concentration
Method: For pharmacokinetic (PK) analysis, 5 mg/kg MS-0022 was given by IV, PO and IP administration to 7–8 week old male C57BL mice (mouse musculus), and blood was collected after 5, 15, 30, 60, 120, and 240 min, with n = 3. Animals were sacrificed and blood samples (∼0.5 mL each) were collected from the abdominal aorta into EDTA-containing tubes, centrifuged (2–8°C for ∼10 minutes at ∼10000 xg) and plasma harvested into single tubes for each animal and frozen (∼−70°C). Blood samples were analyzed by ChemDiv^'s bioanalytical department. The maximum concentration (Cmax), total drug exposure (the area under the curve to the last quantifiable concentration (AUClast) and as the AUClast value extrapolated to infinity (AUCinf), calculated as AUCinf = AUClast+C(t)last/Kel, where C(t)last is the last measurable concentration), half-life (T1/2) calculated as ln(2)/Kel and Kel calculated as the slope of the terminal linear portion of the concentration/time curve. The WinNonlin Professional 5.2 software (Pharsight Corp.) was used for the calculation of the PK parameters.

[3] = system: Gli1 mRNA expression in Sufu−/− MEF; experiment: Real time PCR of Gli1 mRNA in Sufu−/− MEF; assay type: cell-based, mouse; settings: 10 µM, 72 hours
Method: (§2) Cells were lysed for RNA extraction after 48 or 72 hours of treatment. Total RNA from cultured cells or tumor tissue was isolated using the GeneElute miniprep kit (Sigma-Aldritch) following the manufacturer^'s instructions. cDNA was synthesized from the isolated mRNA using the Retroscript kit (Ambion), and real-time PCR was carried out using the SYBR Green PCR master mix (Stratagene) according to the manufacturer^'s instructions with an Mx3000P cycler (Stratagene). The relative concentrations of cDNA present in each sample were calculated by the MxPro software (Stratagene), normalized for GAPDH (mRNA from cells) or GUS (mRNA from tumors). For real time PCR primer sequences see Table 6. For the tumor tissue real time PCR, previously described human and mouse specific primers against GUSB, PTCH1 and GLI1were used.

[4] = system: GLI1 mRNA in PANC-1 cells; experiment: Real time PCR of GLI1 mRNA in PANC-1; assay type: cell-based, human; settings: 5 µM, 48 hrs
Method: as §2

SUIT-2 cells [5] = experiment: Passage growth assay, SUIT-2; assay type: cell-based, human; settings: 5 µM, passage 2 and 3
Method: 20,000 cells were seeded per well in 6 well plates (triplicates) with DMSO or 5 µM MS-0022. Treatment medium was changed on day 3–5, and after 5–7 days the cells were trypsinized, re-suspended in medium and counted, before reseeding cells at 20,000/well for a subsequent passage. The average growth of MS-0022 treated cells was calculated as a percentage of the growth of the DMSO control at the end of each passage. Graphs display average of percent growth with standard deviation bars (n = 3).

[6] = system: Gli1 protein in Sufu−/− MEF; experiment: Gli1 immunostaining of Sufu−/− MEF; assay type: cell-based, mouse; settings: 20 µM, 48 hours
[7] = system: Wnt signaling in HEK293 cells; experiment: Wnt luciferase reporter assay (SuperTop-luc) in HEK293; assay type: cell-based; settings: HEK293, 10 and 20 µM, 24 hours
Method: Vectors were obtained from the following: GliBS-Luc reporter (gift from H. Sasaki), pBluescript (pBS) (Stratagene), FL-HA-GLI1 (Gli1) and Gli2-GFP (Gli2) (gifts from R. Toftgård), Super8XTOPFlash, and NFkB-luc (Panomics). 10 ng renilla luciferase (pRL-TK) (Promega) was used as a transfection control. HEK293 and NIH3T3 cells were seeded at 80,000 per well in 48-well plates on day 1, and were co-transfected on day 2 using a total of 0.4 µg plasmid per well mixed at 1∶3 in FUGENE6 according to manufacturer^'s instructions. On day 3, control medium and activating medium (50% L1 conditioned medium, 50% Shh conditioned medium or medium containing 10 ng/mL recombinant rcrTNF-α (R&D Systems)) +/− 10–20 µM MS-0022 were added, using DMSO as a control (the NFkB pathway inhibitor Bay11-7082 was used as a control in the NFkB assay). Samples were analyzed on day 4 or 5 using the Dual Luciferase assay kit according to manufacturer^'s instructions. Graphs display relative or fold reporter activity, and are calculated from a mean ratio of firefly reporter luminescence/pRL-TK luminescence with standard deviation error bars (n = 3). The experiments have been repeated with similar results.

SUIT-2 cells [8] = experiment: In vitro antiproliferative assay (MTS), SUIT-2; assay type: cell-based, human; settings: 4 day
Method: as §1

With `Cc1cccn2cc(-c3ccc(NC(=O)c4ccccc4Br)cc3)nc12` [MS-0022, 2-bromo-N-(4-(8-methylimidazo[1,2-a]pyridin-2-yl)phenyl)benzamide] the “growth reduction (MTS)” value [1] was 40%–70%, the Cmax ([2]; male, C57BL, mouse, plasma, ip, IP, read-out: Cmax) was 378 ng/mL and the Cmax ([2]; male, C57BL, mouse, plasma, iv, IV, read-out: Cmax) was 934 ng/mL. The Cmax ([2]; male, C57BL, mouse, plasma, po, PO, read-out: Cmax) was 912 ng/mL, the concentration at 5 min ([2]; male, C57BL, mouse, plasma, IP) was 30 ng/mL and the concentration at 15 min ([2]; male, C57BL, mouse, plasma, IP) was 261 ng/mL. The concentration at 30 min ([2]; male, C57BL, mouse, plasma, IP) was 378 ng/mL, the concentration at 60 min ([2]; male, C57BL, mouse, plasma, IP) was 158 ng/mL and the concentration at 120 min ([2]; male, C57BL, mouse, plasma, IP) was 56 ng/mL. For the same compound, the concentration at 240 min ([2]; male, C57BL, mouse, plasma, IP) was 15 ng/mL, the concentration at 5 min ([2]; male, C57BL, mouse, plasma, IV) was 934 ng/mL and the concentration at 15 min ([2]; male, C57BL, mouse, plasma, IV) was 712 ng/mL. It also gave a concentration at 30 min ([2]; male, C57BL, mouse, plasma, IV) of 626 ng/mL, a concentration at 60 min ([2]; male, C57BL, mouse, plasma, IV) of 620 ng/mL and a concentration at 120 min ([2]; male, C57BL, mouse, plasma, IV) of 253 ng/mL. For the same compound, the concentration at 240 min ([2]; male, C57BL, mouse, plasma, IV) was 73 ng/mL, the concentration at 5 min ([2]; male, C57BL, mouse, plasma, PO) was 468 ng/mL and the concentration at 15 min ([2]; male, C57BL, mouse, plasma, PO) was 912 ng/mL. For the same compound, the concentration at 30 min ([2]; male, C57BL, mouse, plasma, PO) was 461 ng/mL, the concentration at 60 min ([2]; male, C57BL, mouse, plasma, PO) was 437 ng/mL and the concentration at 120 min ([2]; male, C57BL, mouse, plasma, PO) was 180 ng/mL. For the same compound, the concentration at 240 min ([2]; male, C57BL, mouse, plasma, PO) was 51 ng/mL, the bioavailability ([2]; male, C57BL, plasma, po, mouse, read-out: Per oral bioavailability) was 98% and the AUC(0-inf) ([2]; male, C57BL, IP) was 437 ng·h/mL. The AUC(0-t) ([2]; male, C57BL, IP) was 417 ng·h/mL, the half-life ([2]; male, C57BL, IP) was 54.8 min and the k el ([2]; male, C57BL, IP) was 0.00021 s⁻¹. It also gave an AUC(0-inf) ([2]; male, C57BL, IV) of 1560 ng·h/mL, an AUC(0-t) ([2]; male, C57BL, IV) of 1460 ng·h/mL and a half-life ([2]; male, C57BL, IV) of 59.3 min. The k el ([2]; male, C57BL, IV) was 0.000195 s⁻¹, the AUC(0-inf) ([2]; male, C57BL, PO) was 1140 ng·h/mL and the AUC(0-t) ([2]; male, C57BL, PO) was 1070 ng·h/mL. It also gave a half-life ([2]; male, C57BL, PO) of 59.1 min, a k el ([2]; male, C57BL, PO) of 0.000195 s⁻¹ and a Cmax ([2]; IP) of 377.7 ng/mL. The Cmax ([2]; IV) was 934.3 ng/mL, the “reduction of relative Gli1 mRNA levels in Sufu−/− MEFs” value [3] was 50% and the “GLI1 mRNA levels, PANC-1” value [4] was “without reducing GLI1 mRNA levels”. The “serial passage growth reduction, SUIT-2” value (SUIT-2 cells [5]) was “not significant”, the “ratio of nuclear versus cytoplasmic Gli1” value [6] was “did not alter the ratio” and the “total level of Gli1 in the cells” value [6] was “the total level of Gli1 in the cells was reduced”. For the same compound, the “L1 medium induced Wnt signaling” value [7] was “did not significantly block” and the “growth (MTS), SUIT-2” value (SUIT-2 cells [8]) was “only MS-0022 reduced growth”.
